The values that follow come from PMC7108291 (Spectrochimica Acta. Part A, Molecular and Biomolecular …, 2009).

What all share (experiment): tryptophan fluorescence quenching titration at […] °C
What all share (type): binding

The target in one test is Taq polymerase (Thermus aquaticus, UniProt P19821).
The target of the next test is DNase I (Bos taurus, UniProt P00639).
In the next test the target is T1, RNase A (Bos taurus, UniProt P61823).
T1 sequence (P61823 27-150): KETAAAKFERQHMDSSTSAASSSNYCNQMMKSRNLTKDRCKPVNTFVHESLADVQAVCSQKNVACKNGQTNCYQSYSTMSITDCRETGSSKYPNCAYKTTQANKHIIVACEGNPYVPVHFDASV

Sequence of DNase I (P00639 23-282): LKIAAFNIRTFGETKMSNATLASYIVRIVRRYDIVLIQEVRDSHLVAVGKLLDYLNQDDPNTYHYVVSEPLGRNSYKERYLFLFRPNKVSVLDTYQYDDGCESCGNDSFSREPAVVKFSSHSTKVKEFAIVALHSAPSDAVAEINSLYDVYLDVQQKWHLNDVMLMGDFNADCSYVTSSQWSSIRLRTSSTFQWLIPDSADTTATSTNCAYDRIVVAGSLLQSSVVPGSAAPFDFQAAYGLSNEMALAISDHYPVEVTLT
Sequence of Taq polymerase (P19821 whole entry): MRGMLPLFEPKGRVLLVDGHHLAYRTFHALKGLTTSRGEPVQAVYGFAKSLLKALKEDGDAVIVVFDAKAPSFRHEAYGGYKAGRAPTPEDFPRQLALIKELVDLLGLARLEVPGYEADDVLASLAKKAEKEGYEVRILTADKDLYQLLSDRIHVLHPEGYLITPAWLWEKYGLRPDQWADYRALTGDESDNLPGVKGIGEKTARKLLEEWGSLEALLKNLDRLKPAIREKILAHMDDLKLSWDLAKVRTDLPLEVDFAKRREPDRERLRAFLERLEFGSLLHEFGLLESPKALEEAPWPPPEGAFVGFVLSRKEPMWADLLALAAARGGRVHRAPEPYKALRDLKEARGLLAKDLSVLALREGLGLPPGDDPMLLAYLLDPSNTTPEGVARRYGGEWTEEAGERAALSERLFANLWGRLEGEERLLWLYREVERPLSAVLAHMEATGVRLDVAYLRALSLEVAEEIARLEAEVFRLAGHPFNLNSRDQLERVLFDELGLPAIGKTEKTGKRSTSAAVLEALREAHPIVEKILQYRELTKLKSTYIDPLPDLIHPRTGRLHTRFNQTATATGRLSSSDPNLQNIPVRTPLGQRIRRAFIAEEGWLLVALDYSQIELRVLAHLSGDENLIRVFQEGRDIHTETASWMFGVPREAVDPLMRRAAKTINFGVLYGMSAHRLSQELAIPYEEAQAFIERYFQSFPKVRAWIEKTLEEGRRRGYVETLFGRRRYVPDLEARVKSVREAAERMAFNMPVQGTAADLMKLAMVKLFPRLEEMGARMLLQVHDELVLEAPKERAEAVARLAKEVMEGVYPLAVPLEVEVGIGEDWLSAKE

As to `O=C(O)C1=CC(=C(c2ccc(O)c(C(=O)O)c2)c2ccc(O)c(C(=O)O)c2)C=CC1=O` [ATA, aurintricarboxylic acid], the Kd (usually a measure of binding affinity in units of concentration) at Taq polymerase was 82 µM; on DNase I, 9.02 µM; on RNase A, 2.33 µM.
